Data published in US20220323405A1, “COMBINATION PRODUCT USING 3,4-METHYLENEDIOXYMETHAMPHETAMINE AND […] THE TREATMENT OF […] DISORDERS” (Universitätsspital Basel, priority 2021, published 2022).
Like-named read-outs stand apart in the source and are kept apart here.

Legend:
healthy subjects [1] = details: doxazosin 8 mg/d for 3 days before MDMA 125 mg; cited from earlier work
healthy subjects [2] = details: non-ambulating persons, 1.5-4 hours after administration vs placebo; p<0.001; cited from earlier work
humans [3] = details: cited from earlier work
healthy humans = test: Modeled co-administration of carvedilol with MDMA at the same time (estimates from pre-administration data); design: species or system human
Excerpt: FIGS. 11A-11C are graphs showing effects of MDMA alone, carvedilol alone, carvedilol prior to MDMA and carvedilol co-administered with MDMA at the same time (modeled data) on systolic (FIG. 11A), diastolic (FIG. 11B), and mean arterial blood pressure (FIG. 11C) in healthy humans; and
FIGS. 12A-12B are graphs showing effects of MDMA alone, carvedilol alone, carvedilol prior to MDMA and carvedilol co-administered with MDMA at the same time (modeled data) on heart rate (FIG. 12A) and body temperature (FIG. 12B) in healthy humans.
Therefore, the present invention further developed the carvedilol-pre-dosing approach into a simultaneous dosing approach. The study provided the information on the effects of carvedilol alone, and MDMA alone.
For blood pressure and heart rate the effects of carvedilol given simultaneously with MDMA were therefore estimated using the carvedilol and placebo mean values for each measured time point after administration and the mean carvedilol-placebo effect difference was calculated and then subtracted from the MDMA-placebo difference (FIGS. 11A-11C).
FIGS. 11A-11C and 12A-12B illustrate the beneficial effect of the present invention using co-administration of the adverse effect-reducing agent (carvedilol) and the empathogen/entactogen (MDMA). If carvedilol is administered before MDMA (carvedilol prior MDMA condition) as in the past study (Hysek et al., 2012a), a drop in blood pressure and heart rate can be observed in FIGS. 11A-11C and 12A-12B prior to the MDMA administration and consistent with the effect of carvedilol alone.
The graphical illustrations (FIGS. 11A-11C and 12A-12B) are based on estimates and modeling using existing data from the pre-administration of carvedilol. However, it is clear from illustrations FIGS. 11A-11C and 12A-12B that the invention provides an effective approach to reduce MDMA-induced cardiostimulant effects.

healthy human subjects = details: MDMA 125 mg vs placebo, cited from earlier work
rats = details: cited from earlier work
healthy subjects [4] = details: cited from earlier work
humans [5] = details: carvedilol 50 mg; cited from earlier work
[6] = humans, after MDMA vs after pindolol-MDMA
[7] = carvedilol 50 mg 1 hour before MDMA 125 mg
[8] = carvedilol 50 mg 1 hour before MDMA 125 mg, listed as Carvedilol

For `COc1cc2nc(N3CCN(C(=O)C4COc5ccccc5O4)CC3)nc(N)c2cc1OC` (stereo not shown) [Doxazosin, doxazosin], the “Effect on MDMA-induced elevations in blood pressure” value (shortened to “Effect … in blood pressure”) (healthy subjects [1]) is given as “reduced” and the “Effect on MDMA-induced elevations in body temperature” value (healthy subjects [1]) is given as “reduced”.
In the case of `CNC(C)Cc1ccc2c(c1)OCO2` (stereo not shown) [MDMA, 3,4-methylenedioxymethamphetamine], the Body temperature (healthy subjects [2]) is listed as “elevated”, the “Peak mean arterial blood pressure (MAP) values” (humans [3]; [6]) is listed as 115±11 mm Hg and the “Peak values (mean±SD) for heart rate” value (humans [3]; [6]) is listed as 84±13 beats/minute. For the same compound, the “Body temperature (FIG. 12B)” value (healthy humans; MDMA alone) was “slightly increases”, the “Diastolic and systolic blood pressure” value (healthy human subjects) was “significantly increased” and the Heart rate (healthy human subjects) was “significantly increased”. The Pupil size (healthy human subjects) was “significantly increased”, the Rate pressure product (healthy human subjects) was “significantly increased” and the Body temperature (healthy human subjects; tympanic) was “significantly increased”. The Norepinephrine levels (rats) was “induced”.
In the case of `COc1ccccc1OCCNCC(O)COc1cccc2[nH]c3ccccc3c12` (stereo not shown) [carvedilol], the “Effect … in blood pressure” value (healthy subjects [4]; [7]) is listed as “effectively reduced”, the “Effect on MDMA-induced elevations in body temperature” value (healthy subjects [4]; [7]) is listed as “reduced” and the “Effect on MDMA-induced elevations in heart rate” value (healthy subjects [4]; [7]) is listed as “effectively reduced”. For the same compound, the “Effect on plasma exposure to MDMA” value (healthy subjects [4]; [7]) was “did not alter”, the “Effect on subjective effects of MDMA (good drug effects, drug liking)” value (healthy subjects [4]; [7]) was “did not alter” and the “Effect … in blood pressure” value (healthy subjects [4]; [8]) was “reduced”. The “Effect on MDMA-induced elevations in heart rate” value (healthy subjects [4]; [8]) was “reduced”, the “Effect on subjective effects of MDMA (good drug effects, drug liking)” value (healthy subjects [4]; [8]) was “did not affect” and the “Blood pressure and heart rate prior to the MDMA administration” value (healthy subjects [4]; carvedilol prior MDMA condition) was “drop”. The “Effect on MDMA-induced increase in body temperature (FIG. 12B)” value (healthy humans; carvedilol administered prior to MDMA and with MDMA, modeled data) was “reduce”, the “Effect on MDMA-induced increase in heart rate and blood pressure” value (healthy humans; carvedilol with MDMA at the same time, modeled data) was “reduce the MDMA effect effectively and similarly” and the “Effect on smoked cocaine-induced increases in heart rate and blood pressure” value (humans [5]) was “attenuate”. For the same compound, the “Effect on established MDMA-induced hyperthermia” value (rats; administered 1 hour after MDMA) was “completely reversed” and the “Effect on MDMA-induced hyperthermic (thermogenic) response” value (rats; administered before or after MDMA) was “prevented”.
For `CC(C)NCC(O)COc1cccc2[nH]ccc12` (stereo not shown) [pindolol], the “Effect on MDMA-induced increase in body temperature” value (humans [3]; pindolol pretreatment) is given as “no effect” and the “Effect on adverse effects of MDMA” value (humans [3]; pindolol pretreatment) is given as “did not change”.
